Values after ≈ are worked out from the molar mass of the structure shown. Each block holds one compound with its values, some of them ahead of it. Active and inactive are the calls of the source. The rule behind the calls is not given here.
Experiments:
[1] = system: 786-0; assay: cells; conditions: Homo sapiens, 786-0, 72 h
[2] = in vitro; conditions: mouse, hepatocytes
[3] = physchem; conditions: PBS buffer, pH 7.4
[4] = system: 786-0; assay: cells; conditions: Homo sapiens
[5] = system: 786-0; assay: cells; conditions: Homo sapiens; remark: listed apart in the source
[6] = system: SK-BR-3; assay: cells; conditions: Homo sapiens
[7] = system: SK-BR-3; assay: cells; conditions: Homo sapiens; remark: listed apart in the source
[8] = physchem
[9] = system: HCT-116; assay: cells; conditions: Homo sapiens, HCT-116, 72 h, read-out: Activity
[10] = system: 786-0; assay: cells; conditions: Homo sapiens, 786-0, 72 h, read-out: Activity
[11] = in vivo; conditions: CD-1, mouse, ip, 40 mg/kg
[12] = in vivo; conditions: CD-1, mouse, ip, 40 mg/kg; remark: listed apart in the source
[13] = in vivo; conditions: CD-1, mouse, iv, 1 mg/kg
[14] = system: Hep 3B2; assay: animal or person; conditions: Mus musculus, Hep3B, po, read-out: TGI
[15] = in vivo; conditions: CD-1, mouse, iv, 1 mg/kg; remark: listed apart in the source
[16] = physchem; conditions: NCl, pH 1.2
[17] = system: Hep 3B2; assay: animal or person; conditions: Mus musculus, Hep3B, po, read-out: TGI; remark: listed apart in the source
[18] = animal or person; conditions: Homo sapiens, SF767, po, 1152 h, read-out: TGI
[19] = physchem; conditions: FaSSIF, pH 6.5
[20] = in vivo; conditions: CD-1, mouse, ip, 40 mg/kg; remark: listed apart in the source
[21] = system: 786-0; assay: cells; conditions: Homo sapiens, 786-0, 72 h, read-out: Activity; remark: listed apart in the source
[22] = system: 786-0; assay: cells; conditions: Homo sapiens, 786-0, 72 h, read-out: Activity; remark: listed apart in the source
[23] = system: A-375; conditions: Homo sapiens, dose 5-40 mg/kg, route ip
[24] = system: 786-0; assay: animal or person; conditions: Mus musculus, 786-0, 384 h, read-out: TGI
[25] = animal or person; conditions: Homo sapiens, SF767, po, 1152 h, read-out: TGI; remark: listed apart in the source
[26] = in vivo; conditions: CD-1, mouse, ip, 40 mg/kg; remark: listed apart in the source
[27] = system: 786-0; conditions: Homo sapiens, dose 20.0 mg/kg, route po, time 28.0 day
[28] = physchem; conditions: PBS buffer, pH 7.4; remark: listed apart in the source
[29] = in vivo; conditions: CD-1, mouse, iv, 1 mg/kg; remark: listed apart in the source
[30] = system: Hep 3B2; assay: animal or person; conditions: Mus musculus, Hep3B, po, read-out: TGI; remark: listed apart in the source
[31] = system: 786-0; assay: cells; conditions: Homo sapiens, 786-0, 72 h, read-out: Activity; remark: listed apart in the source
[32] = animal or person; conditions: Homo sapiens, SF767, po, 1152 h, read-out: TGI; remark: listed apart in the source

SMILES: CC(=O)c1[nH]c2ccc(F)cc2c1-c1cn(CC2CCN(CCNS(=O)(=O)c3ccc(-c4c(O)cccc4F)c(C)c3)CC2)nn1
IC50 [1]: 6.6 µM | remaining at 0.5 h [2]: 27% | solubility at 24 h [3]: 3.4 µg/mL (≈ 5.24 µM)

SMILES: COc1cccc(OC)c1-c1ccc(S(=O)(=O)NCCN2CCC(Cn3cc(-c4c(C(C)=O)[nH]c5ccc(F)cc45)nn3)CC2)cc1C
IC50 [1]: 1.7 µM | remaining at 0.5 h [2]: 44% | solubility at 24 h [3]: 1.9 µg/mL (≈ 2.82 µM)

SMILES: O=C(O)c1ccc2c(c1)nc(Nc1cccc(Cl)c1)c1ccncc12 [SILMITASERTIB]
viability at 10 µM [9]: 69.2% | viability at 10 µM [10]: 93.5%

SMILES: CC(=O)c1[nH]c2ccc(F)cc2c1-c1cn(CC2CCN(CCNS(=O)(=O)c3ccc(-c4cccc5ccsc45)cc3)CC2)nn1
IC50 [1]: > 10 µM

SMILES: CSc1ccccc1-c1ccc(S(=O)(=O)NCCN2CCC(Cn3cc(-c4c(C(C)=O)[nH]c5ccc(F)cc45)nn3)CC2)cc1C
IC50 [1]: > 10 µM | remaining at 0.5 h [2]: 26% | solubility at 24 h [3]: < 0.5 µg/mL

SMILES: CCOC(=O)c1[nH]c2ccc(F)cc2c1-c1cn(CC2CCN(CCNS(=O)(=O)c3ccc(CC(C)C)cc3)CC2)nn1
IC50 [1]: > 10 µM | remaining at 0.5 h [2]: < 10% | solubility at 24 h [3]: < 0.5 µg/mL

SMILES: CC(=O)c1[nH]c2ccc(F)cc2c1-c1cn(CC2CCN(CCNS(=O)(=O)c3ccc(-c4c(O)cccc4F)c(Cl)c3)CC2)nn1
IC50 [1]: > 10 µM | solubility at 24 h [3]: < 0.5 µg/mL

SMILES: CC(C)Cc1ccc(S(=O)(=O)NCCN2CCC(Cn3cc(-c4c(C(=O)C(C)C)[nH]c5ccc(F)cc45)nn3)CC2)cc1
IC50 [1]: > 10 µM | remaining at 0.5 h [2]: 15% | solubility at 24 h [3]: 0.9 µg/mL (≈ 1.48 µM)

SMILES: CNC(=O)c1cc(Oc2ccc(NC(=O)Nc3ccc(Cl)c(C(F)(F)F)c3)cc2)ccn1 [SORAFENIB]
inhibition in vivo at 40 mg/kg [30]: 29% | viability at 4.5 µM [31]: 88%

SMILES: COc1cccc(OC)c1-c1ccc(S(=O)(=O)NCCN2CCC(Cn3cc(-c4c(C(C)=O)[nH]c5ccc(F)cc45)nn3)CC2)cc1
IC50 [1]: > 10 µM | remaining at 0.5 h [2]: 67% | solubility at 24 h [3]: 8 µg/mL (≈ 12.1 µM)

SMILES: Cn1nnc2c(C(N)=O)ncn2c1=O [TEMOZOLOMIDE]
inhibition in vivo at 20 mg/kg [32]: 67%

More lines, main results first:

IC50 [1]: > 10 µM | IC50 [4]: 14.8 µM | remaining at 0.5 h [2]: < 10% | IC50 [5]: 14.8 µM | solubility at 24 h [3]: < 0.5 µg/mL | IC50 [6]: 8.9 µM | IC50 [7]: 8.9 µM | solubility [8]: < 0.5 µg/mL
SMILES: CC(C)COC(=O)c1[nH]c2ccc(F)cc2c1-c1cn(CC2CCN(CCNS(=O)(=O)c3ccc(CC(C)C)cc3)CC2)nn1

IC50 [1]: 2.9 µM
SMILES: COc1ccccc1-c1ccc(S(=O)(=O)NCCN2CCC(Cn3cc(-c4c(C(C)=O)[nH]c5ccc(F)cc45)nn3)CC2)cc1C

IC50 [1]: 6.8 µM | remaining at 0.5 h [2]: 25% | solubility at 24 h [3]: 1.5 µg/mL (≈ 2.78 µM)
SMILES: CC(C)Cc1ccc(S(=O)(=O)NCCN2CCC(Cn3cc(-c4c[nH]c5ccc(F)cc45)nn3)CC2)cc1

IC50 [1]: > 10 µM | solubility at 24 h [3]: < 0.5 µg/mL
SMILES: CC(=O)c1[nH]c2ccc(F)cc2c1-c1cn(CC2CCN(CCNS(=O)(=O)c3ccc(-c4c(F)cccc4C(F)(F)F)cc3)CC2)nn1

IC50 [1]: 5.9 µM | remaining at 0.5 h [2]: 18% | solubility at 24 h [3]: 2.7 µg/mL (≈ 5.19 µM)
SMILES: CC(C)Cc1ccc(S(=O)(=O)NCCN2CCC(Cn3cc(-c4c[nH]c5ccccc45)nn3)CC2)cc1

solubility at 24 h [3]: 25.5 µg/mL (≈ 38.7 µM)
SMILES: CC(=O)c1[nH]c2ccc(F)cc2c1-c1cn(CC2CCN(CCNS(=O)(=O)c3ccc(-c4c(O)cccc4F)c(C#N)c3)CC2)nn1

IC50 [1]: > 10 µM | remaining at 0.5 h [2]: 48% | solubility at 24 h [3]: 5.4 µg/mL (≈ 8.32 µM)
SMILES: COc1cccc(F)c1-c1ccc(S(=O)(=O)NCCN2CCC(Cn3cc(-c4c(C(C)=O)[nH]c5ccc(F)cc45)nn3)CC2)cc1

IC50 [1]: 3.6 µM | remaining at 0.5 h [2]: < 10% | solubility at 24 h [3]: 1.1 µg/mL (≈ 1.57 µM)
SMILES: CC(=O)c1[nH]c2ccc(F)cc2c1-c1cn(CC2CCN(CCNS(=O)(=O)c3ccc(-c4c(O)cccc4F)c(C(F)(F)F)c3)CC2)nn1

IC50 [1]: 3.3 µM | solubility at 24 h [3]: < 0.5 µg/mL
SMILES: CC(=O)c1[nH]c2ccc(F)cc2c1-c1cn(CC2CCN(CCNS(=O)(=O)c3ccc(-c4c(O)cccc4Cl)cc3)CC2)nn1

IC50 [1]: 0.8 µM | AUC(0-inf) at 24 h [11]: 8640 ng·h/mL | Tmax at 24 h [12]: 1.33 h | clearance at 24 h [13]: 60.5 mL/min/kg | Vd at 24 h [15]: 5.9 L/kg | remaining at 0.5 h [2]: 42% | solubility [16]: 28.2 µg/mL (≈ 44.4 µM) | solubility [19]: > 100 µg/mL | bioavailability at 24 h [20]: > 100% | solubility at 24 h [3]: 10.7 µg/mL (≈ 16.9 µM) | Cmax at 24 h [26]: 2700 ng/mL | solubility [28]: 1.7 µg/mL (≈ 2.68 µM) | half-life at 24 h [29]: 1.13 h
SMILES: CC(=O)c1[nH]c2ccc(F)cc2c1-c1cn(CC2CCN(CCNS(=O)(=O)c3ccc(-c4c(O)cccc4F)cc3)CC2)nn1
viability at 10 µM [9]: 85.1% | inhibition in vivo at 30 mg/kg [14]: 95% | inhibition in vivo at 30 mg/kg [17]: 74% | inhibition in vivo at 40 mg/kg [18]: 77% | viability at 1 µM [21]: 90.4% | viability at 1 µM [22]: 25% | TGI [23]: Active | inhibition in vivo at 40 mg/kg [24]: 90% | inhibition in vivo at 40 mg/kg [25]: 103% | TGI [27]: Active | viability at 10 µM [10]: 12.7%

IC50 [1]: 0.9 µM | remaining at 0.5 h [2]: 46% | solubility at 24 h [3]: 18.5 µg/mL (≈ 30 µM)
SMILES: CC(=O)c1[nH]c2ccc(F)cc2c1-c1cn(CC2CCN(CCNS(=O)(=O)c3ccc(-c4ccccc4O)cc3)CC2)nn1

IC50 [1]: 3.2 µM | remaining at 0.5 h [2]: 53% | solubility at 24 h [3]: 10.4 µg/mL (≈ 17.9 µM)
SMILES: CC(=O)c1[nH]c2ccc(F)cc2c1-c1cn(CC2CCN(CCNS(=O)(=O)c3ccc(CC(C)C)cc3)CC2)nn1

IC50 [1]: > 10 µM | remaining at 0.5 h [2]: 39% | solubility at 24 h [3]: 3.2 µg/mL (≈ 4.81 µM)
SMILES: COc1cc(S(=O)(=O)NCCN2CCC(Cn3cc(-c4c(C(C)=O)[nH]c5ccc(F)cc45)nn3)CC2)ccc1-c1c(O)cccc1F

IC50 [1]: > 10 µM | solubility at 24 h [3]: < 0.5 µg/mL
SMILES: CC(C)Cc1ccc(S(=O)(=O)NCCN2CCC(Cn3cc(-c4c(C(=O)C5CC5)[nH]c5ccc(F)cc45)nn3)CC2)cc1

Source: ChEMBL document CHEMBL6182936, “Discovery of KDX1381, a Bivalent CK2α Inhibitor for the Treatment of Solid Tumors as a Single Agent or in Combination” (J Med Chem, 2025)
